Experimental data published in patent publication US7795254B2, “Benzomorpholine derivatives and methods of use” (Amgen Inc., priority 2007, dated 2010).
Read-outs that look alike come from different tables or passages of the source.

Tests used:
HUVEC = test: VEGF induced proliferation, HUVEC cell-based assay; conditions: Homo sapiens
[1] = tested on: VEGF-induced rat corneal angiogenesis; test: VEGF-induced rat corneal angiogenesis assay; type: in vivo; conditions: for Average # of Vessels: 7 days
Method: (§1) Tables 2 through 6 below describe the results obtained in the rat corneal in vivo model of angiogenesis for (1) reference compound (free base) 1, (2) Compound A (free base), and (3) the hydrochloride salt of Compound A. A VEGF-induced rat corneal angiogenesis assay was performed using the following procedure: • In Life Aspects: Female CD rats weighing approximately 250 grams were randomized into one of six treatment groups. On the day of surgery the rats were temporarily anesthetized using isoflurane. A vertical incision was made on the midline of the cornea and a pocket was created to separate the connective tissue layers of the stroma. The distance between the apex of the pocket and the limbus was approximately 1.8 mm. A presoaked nylon filter disk was inserted to the apex of the pocket (in the case of the control treatment group, the disks were soaked in a buffer containing bovine serum albumin; in the remaining treatment groups, the disks were soaked in buffer containing bovine serum albumin plus human VEGF to induce angiogenesis). The different treatment groups were then dosed daily with either vehicle (Ora Plus™, a commercially available vehicle) or a designated amount of test compound formulated in vehicle. • Study Termination and Analysis: After seven days, the rats were euthanized and the implanted corneas photographed using a Nikon SV-3 Ophthalmic Slit Lamp. Numerical data were generated from the digital images using the Metamorph image analysis system (Universal Imaging). Three endpoints were analyzed on each corneal image: (1) disk placement distance from the limbus, (2) number of vessels intersecting a perpendicular line at the midpoint of the disk placement distance, and (3) blood vessel area, as determined by thresholding and automated pixel counting. Only the number of blood vessels is shown in the tables as this endpoint correlated well with the blood vessel area. • Statistical Analysis: Results were analyzed with the StatView statistical program using one-way ANOVA, followed by Fisher's least significant difference test. Data are presented as mean±SE and P<0.05 was considered significant. AUC and ED50 values were calculated using methods well known in the art.

[2] = Exposure (AUC) in the rat corneal angiogenesis study; type: in vivo; conditions: for AUC: female, CD, rat, in vivo, oral, Table 3, free base
Method: as §1

[3] = Rat pharmacokinetic profile; conditions: in vivo
Text: (§2) Table 7 provides additional information about the pharmacokinetic profiles of reference compound 1 and Compound A. The data contained in this table was obtained using methods well known in the art.

Rat Liver Microsome = test: Rat liver microsome clearance; type: in vitro ADME; conditions: rat liver microsomes
Text: as §2

Human Liver Microsome = test: Human liver microsome clearance; type: in vitro ADME; conditions: human liver microsomes
Text: as §2

liver microsomes = test: In vitro metabolite profiling in liver microsomes; type: in vitro ADME; conditions: 10 μM, liver microsomes 1 mg/mL (human, mouse, rat, monkey, rabbit, dog), NADPH, 37° C., 1 hr
Method: Incubation mixtures were prepared including [14C]-Compound A (10 μM, 0.5 μCi), liver microsomes at 1 mg/mL (human, mouse, rat, monkey, rabbit, dog), MgCl2 (3 mM), and potassium phosphate buffer (100 mM). The reaction was started by adding NADPH (1 mM) and incubations were carried out in a shaking water bath maintained at 37° C. for 1 hr. The reactions were stopped by adding 1 volume of ACN:MeOH 1:1 mixture; vortex mixed; centrifuged at 16000×g. The supernatants were analyzed on a reverse phase HPLC (Agilent 1100, Agilent systems, DE) in line with a radiomatic (β-ram, IN/US systems, FL) detector and an LTQ ion-trap mass spectrometer (ThermoFisher, San Jose, Calif.). HPLC separations were carried out on a phenyl-hexyl luna (150×4.6 mm, 5 μm, Phenomenex Inc) column maintained at 40° C. at a flow rate of 1 mL/min. A binary mobile phase consisting of 10 mM ammonium formate in H2O (solvent A) and 0.1% formic in MeOH (solvent B) was employed under the following gradient conditions: 0 to 2 min, 95% A; 2 to 10 min, 95 to 75% A; 10 to 40 min, 75 to 60% A; 40 to 60 min, 60 to 55% A; 60 to 77 min, 55 to 25% A; 77 to 78 min, 25 to 5% A; 78 to 83 min, 5% A; 83 to 84 min, 5 to 95% A; 84 to 90 min, 95% A. The flow post-column was split such that 80% went to radiomatic detector and the remaining 20% to MS. […]

cytochrome P450 3A4 = cytochrome P450 3A4 (Homo sapiens, UniProt P08684); test: Incubation with recombinant human cytochrome P450 3A4; type: in vitro ADME; conditions: fortified with NADPH
Chain of cytochrome P450 3A4 (P08684 whole entry): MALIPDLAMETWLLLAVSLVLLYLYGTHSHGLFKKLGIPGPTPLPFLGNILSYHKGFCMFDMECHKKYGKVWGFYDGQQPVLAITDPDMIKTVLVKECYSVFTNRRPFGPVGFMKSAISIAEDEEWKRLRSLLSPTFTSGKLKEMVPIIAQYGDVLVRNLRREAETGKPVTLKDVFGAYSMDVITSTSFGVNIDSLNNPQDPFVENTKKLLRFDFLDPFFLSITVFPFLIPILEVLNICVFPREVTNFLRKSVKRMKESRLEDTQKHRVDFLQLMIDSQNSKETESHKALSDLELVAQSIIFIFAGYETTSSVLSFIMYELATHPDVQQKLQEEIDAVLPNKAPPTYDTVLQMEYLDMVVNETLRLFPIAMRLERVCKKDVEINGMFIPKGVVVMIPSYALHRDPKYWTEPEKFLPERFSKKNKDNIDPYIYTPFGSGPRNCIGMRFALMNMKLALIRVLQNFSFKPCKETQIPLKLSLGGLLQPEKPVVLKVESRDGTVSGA
Text: The following compounds identified in Table 16 below were the significant metabolites formed in all species.

**Q.** For `COc1cc2nccc(Oc3ccc4c(c3)OCCN4C(=O)Nc3cc(C)on3)c2cc1OC` [Compound A, 7-((6,7-bis(methyloxy)-4-quinolinyl)oxy)-N-(5-methyl-3-isoxazolyl)-2,3-dihydro-4H-1,4-benzoxazine-4-carboxamide], which IC50 (HUVEC) is on record?
**A.** The IC50 was 2 nM.

**Q.** And the ED50 ([1]; Rattus norvegicus, Table 3, free base, number of vessels, read-out: ED50)?
**A.** The ED50 was 0.16 mg/kg.

**Q.** What about the ED50 ([1]; Rattus norvegicus, Table 6, HCl salt Run #3, number of vessels, read-out: ED50) of the same molecule?
**A.** Its ED50 is 0.14 mg/kg.

**Q.** What about the “Average # of Vessels” value ([1]; Table 3, free base, VEGF disc + 0.03 mg/kg daily) of the same molecule?
**A.** Its value is 24.5.

**Q.** What about the “Average # of Vessels” value ([1]; Table 3, free base, VEGF disc + 0.1 mg/kg daily) of the same molecule?
**A.** Its value is 24.9.

**Q.** And the “Average # of Vessels” value ([1]; Table 3, free base, VEGF disc + 0.3 mg/kg daily)?
**A.** Its value is 5.4.

**Q.** What about the “Average # of Vessels” value ([1]; Table 3, free base, VEGF disc + 1.0 mg/kg daily) of the same molecule?
**A.** Its value is 2.3.

**Q.** What about the ED50 ([1]; free base, review of Tables 2 and 3) of the same molecule?
**A.** Its ED50 is 0.16 mpk.

**Q.** And the “AUC at ED50” value ([2]; Table 6, HCl salt Run #3)?
**A.** Its value is 338 ng·h/mL.

**Q.** And the “average AUC at the ED50” value ([2]; average of HCl salt studies of Tables 4 and 6 and free base study of Table 3)?
**A.** Its value is 313 ng·h/mL.

**Q.** And the AUC ([2]; 0.03 mg/kg, 0.03 mg/kg daily)?
**A.** Its AUC is 109 ng·h/mL.

**Q.** What about the AUC ([2]; 0.1 mg/kg, 0.1 mg/kg daily) of the same molecule?
**A.** Its AUC is 203 ng·h/mL.

**Q.** What about the AUC ([2]; 0.3 mg/kg, 0.3 mg/kg daily) of the same molecule?
**A.** Its AUC is 730 ng·h/mL.

**Q.** What about the AUC ([2]; 1 mg/kg, 1.0 mg/kg daily) of the same molecule?
**A.** Its AUC is 2370 ng·h/mL.

**Q.** And the clearance ([3]; intravenous)?
**A.** Its clearance is 6.67 mL/min/kg.

**Q.** And the Vd ([3]; intravenous, read-out: Rat Volume of Distribution)?
**A.** Its Vd is 1 L/kg.

**Q.** What about the half-life ([3]; iv, I.V., read-out: Rat I.V. T1/2 (converted)) of the same molecule?
**A.** Its half-life is 2.1 h.

**Q.** And the bioavailability ([3]; po, 2 mg/kg, P.O., 2 mpk, read-out: Rat P.O. (2 mpk) % F)?
**A.** Its bioavailability is 59%.

**Q.** What about the AUC(0-inf) ([3]; po, 2 mg/kg, P.O., 2 mpk, read-out: Rat P.O. (2 mpk) AUC0-inf) of the same molecule?
**A.** Its AUC(0-inf) is 2810 ng·h/mL.

**Q.** What about the AUC(0-t) ([3]; po, 2 mg/kg, P.O., 2 mpk, read-out: Rat P.O. (2 mpk) AUC0-t) of the same molecule?
**A.** Its AUC(0-t) is 2800 ng·h/mL.

**Q.** What about the half-life ([3]; po, 2 mpk, P.O., read-out: Rat P.O. T1/2 (converted)) of the same molecule?
**A.** The half-life was 2 h.

**Q.** And the “Rat Liver Microsome” value (Rat Liver Microsome)?
**A.** The value was 45 µL/min/mg.

**Q.** What about the “Human Liver Microsome” value (Human Liver Microsome) of the same molecule?
**A.** The value was 17 µL/min/mg.

**Q.** And the “turnover in liver microsomes” value (liver microsomes)?
**A.** The value was “Substantial turnover”.

**Q.** And the “metabolites formed with recombinant human cytochrome P450 3A4” value (cytochrome P450 3A4)?
**A.** Its value is “These same metabolites were also formed”.
